This note sets out measurements from patent US11578012B2, “Use of N-functionalized alkoxy pyrazole compounds as nitrification inhibitors” (BASF SE, priority 2018, dated 2023).

This series is described as follows: volatility (statement on prior-art compound). Conditions: qualitative statement, no method given. In kind it is physicochemical.

As for `CCOc1cc(C)[nH]n1` [3-ethoxy-5-methylpyrazole], the volatility entry was “high volatility”.
